# Assays:
# E. coli [1] = assay: Direct flow cytometric AST (high-throughput flow cytometry, HTFC) of sucrose-recovered bacteria; assay type: cell-based, Escherichia coli; parameters: key to susceptibility classification, HTFC: (S) sensitive; (I) intermediate; (R) resistant; settings: for susceptibility classification, HTFC / MIC: sucrose-recovered, antibiotic 4 hours (37° C.); for MIC: Escherichia coli, 4 h, read-out: Minimum inhibitory concentration, HTFC
# Description: (§1) AST workflow using bacteria recovered directly from positive blood culture. A 1-mL aliquot of bacteria recovered using separation method 2 was diluted 10-fold in CAMHB, the OD600 adjusted to ˜0.01, and a 50 μL aliquot distributed into each well of a 96-well plate containing CAMHB with and without ceftazidime, tobramycin, and either meropenem (E. coli and P. aeruginosa) or oxacillin (S. aureus). Following Clinical and Laboratory Standards Institute (CLSI) guidelines^33, 2% sodium chloride (NaCl) was present in wells containing oxacillin to assist in the detection of methicillin-resistant S. aureus (MRSA). […] To account for observed differences in doubling and lag times, E. coli and P. aeruginosa were incubated for 4 hours at 37° C., while S. aureus was incubated for 9 hours at 35° C. After incubation, antibiotic plates were removed from the incubator and directly stored on ice (i.e. no post-processing) until high-throughput flow cytometry (BD LSRFortessa with HTS-system, BD, Franklin Lakes, NJ). No-antibiotic controls and antibiotic-treated samples were handled identically.
# (§2) MIC Determination by flow cytometry. Because antibiotic effects are observed in both the position of scatter signatures (morphology changes) and count rates (growth inhibition), a modified count rate, accounting for scatter position, was used to evaluate susceptibility. Briefly, no-antibiotic control populations (triplicate) were pooled, binned, and a convex hull boundary set at 1-standard deviation above the background (not including bins with zero counts) was drawn. […] The overlap ratio, measuring changes in morphology, was then computed by dividing the number of sample events within the no-antibiotic control boundary by the total number of events within the sample. As an increase in count rate attributed to viable bacteria in antibiotic-treated samples is not scientifically meaningful, the fractional overlap was multiplied by the minimum of the control and sample count rates to generate a modified count rate accounting for antibiotic-induced morphological changes. All modified count rates were normalized by the average of the no-antibiotic controls. For automatic MIC determination, normalized count rates corresponding to n (index of predicted MIC), n+1, n+2 were iteratively fit to a linear function with a frameshift of n+1 between iterations (FIGS. 8 and 9). […] A threshold of −0.01 instead of zero was used to mitigate the influence of small fluctuations in normalized count rates on susceptibility determinations.
# E. coli [2] = assay: Broth microdilution (BMD) MIC; assay type: cell-based, Escherichia coli; parameters: key to susceptibility classification, BMD: (S) sensitive; (I) intermediate; (R) resistant; settings: for MIC: Escherichia coli
# Description: (§3) Microbroth dilution for minimum inhibitory concentrations (MIC) with and without sucrose recovery. To isolate bacteria without sucrose, culture media from positive BacT/alert FA PLUS aerobic culture bottles (bioMérieux, Durham, NC) was serially diluted and plated onto LB agar (Lennox; Sigma-Aldrich, St. Louis, MO). Bacterial suspensions were prepared by resuspending colonies in CAMHB with incubation on a MaxQ 4000 incubator shaker (Thermo Fisher Scientific, Waltham, MA) at 37° C. and ˜225 rpm for 3 hours. Bacteria recovered via Method 2 were diluted 10-fold in CAMHB. Following incubation or sucrose recovery and dilution, bacterial suspensions were adjusted to ˜0.004 OD600 with CAMHB and a 50-μL aliquot distributed to each well of a 96-well plate containing CAMHB with and without clinically relevant antibiotics (2-fold dilution series). Gram-negative plates included: ceftazidime (3rd generation cephalosporin, RPI corp., Mount Prospect, IL), cefepime (4th generation cephalosporin, Chem-Impex Int'l, Wood Dale, IL), meropenem (carbapenem, Tokyo Chemical Industry, Tokyo, Japan), levofloxacin (quinolone, Alfa Aesar, Haverhill, MA), and tobramycin (aminoglycoside, MP Biomedicals LLC, Santa Ana, CA), while S. aureus plates contained: oxacillin (beta-lactam, Sigma-Aldrich, St. Louis, MO), vancomycin (glycopeptide, Santa Cruz Biotechnology, Dallas, TX), erythromycin (macrolide, Sigma-Aldrich, St. Louis, MO), clindamycin ([…]), and ciprofloxacin (fluoroquinolone, Sigma-Aldrich, St. Louis, MO). Antibiotic plates were incubated at 37° C. for 16-20 hours (gram-negative) or 35° C. for 24 hours (S. aureus), at which time, plates were removed from the incubator and visually inspected for bacterial growth. The MIC was set at the lowest antibiotic concentration at which no growth was detected.
# P. aeruginosa [3] = assay: Direct flow cytometric AST (high-throughput flow cytometry, HTFC) of sucrose-recovered bacteria; assay type: cell-based, Pseudomonas aeruginosa; parameters: key to susceptibility classification, HTFC: (S) sensitive; (I) intermediate; (R) resistant; settings: for MIC: Pseudomonas aeruginosa, read-out: Minimum inhibitory concentration, HTFC
# Description: as §1, §2
# P. aeruginosa [4] = assay: Broth microdilution (BMD) MIC; assay type: cell-based, Pseudomonas aeruginosa; parameters: key to susceptibility classification, BMD: (S) sensitive; (I) intermediate; (R) resistant; settings: broth microdilution; for MIC: Pseudomonas aeruginosa, read-out: Minimum inhibitory concentration, BMD
# Description: as §3
compound,measurement,setting,value
"NC[C@H]1O[C@H](O[C@H]2[C@H](O)[C@@H](O[C@H]3O[C@H](CO)[C@@H](O)[C@H](N)[C@H]3O)[C@H](N)C[C@@H]2N)[C@H](N)C[C@@H]1O [Tobramycin, tobramycin]","susceptibility classification, HTFC",E. coli [1]; E. coli Blood Culture A,(S)
same,"susceptibility classification, HTFC",E. coli [1]; E. coli Blood Culture B,(S)
same,"susceptibility classification, HTFC",E. coli [1]; E. coli EC37,(S)
same,"susceptibility classification, HTFC",E. coli [1]; E. coli EC-bank,(S)
same,"susceptibility classification, HTFC",E. coli [1]; E. coli Mu76,(S)
same,"susceptibility classification, HTFC",E. coli [1]; E. coli Mu218,(R)
same,"susceptibility classification, HTFC",E. coli [1]; E. coli Mu890,(S)
same,flow cytometric count rate,"E. coli [1]; E. coli, strain not named (FIG. 14), concentrations ≥0.25 μg/mL, no-antibiotic control ~11,000 evts/s",≥ 100 evts/s
same,MIC,E. coli [1]; E. coli Blood Culture A,0.25 µg/mL
same,MIC,E. coli [1]; E. coli Blood Culture B,4 µg/mL
same,MIC,E. coli [1]; E. coli EC37,0.25 µg/mL
same,MIC,E. coli [1]; E. coli EC-bank,≤ 0.125 µg/mL
same,MIC,E. coli [1]; E. coli Mu76,0.5 µg/mL
same,MIC,E. coli [1]; E. coli Mu218,16 µg/mL
same,MIC,E. coli [1]; E. coli Mu890,0.5 µg/mL
same,"susceptibility classification, BMD","E. coli [2]; E. coli Blood Culture A, broth microdilution",(S)
same,"susceptibility classification, BMD","E. coli [2]; E. coli Blood Culture B, broth microdilution",(I)
same,"susceptibility classification, BMD","E. coli [2]; E. coli EC37, broth microdilution",(S)
same,"susceptibility classification, BMD","E. coli [2]; E. coli EC-bank, broth microdilution",(S)
same,"susceptibility classification, BMD","E. coli [2]; E. coli Mu76, broth microdilution",(S)
same,"susceptibility classification, BMD","E. coli [2]; E. coli Mu218, broth microdilution",(R)
same,"susceptibility classification, BMD","E. coli [2]; E. coli Mu890, broth microdilution",(S)
same,MIC,"E. coli [2]; E. coli Blood Culture A, broth microdilution, read-out: Minimum inhibitory concentration, BMD",1 µg/mL
same,MIC,"E. coli [2]; E. coli Blood Culture B, broth microdilution, read-out: Minimum inhibitory concentration, BMD",8 µg/mL
same,MIC,"E. coli [2]; E. coli EC37, broth microdilution, read-out: Minimum inhibitory concentration, BMD",0.25 µg/mL
same,MIC,"E. coli [2]; E. coli EC-bank, broth microdilution, read-out: Minimum inhibitory concentration, BMD",0.5 µg/mL
same,MIC,"E. coli [2]; E. coli Mu76, broth microdilution, read-out: Minimum inhibitory concentration, BMD",0.5 µg/mL
same,MIC,"E. coli [2]; E. coli Mu218, broth microdilution, read-out: Minimum inhibitory concentration, BMD",32 µg/mL
same,MIC,"E. coli [2]; E. coli Mu890, broth microdilution, read-out: Minimum inhibitory concentration, BMD",0.5 µg/mL
same,MIC,"E. coli [2]; E. coli, strain not named (FIG. 14), read-out: MIC as determined by BMD",0.25 µg/mL
same,"susceptibility classification, HTFC","P. aeruginosa [3]; P. aeruginosa Blood Culture B, antibiotic 4 hours (37° C.)",(S)
same,"susceptibility classification, HTFC","P. aeruginosa [3]; P. aeruginosa Blood Culture C, antibiotic 4 hours (37° C.)",S
same,"susceptibility classification, HTFC","P. aeruginosa [3]; P. aeruginosa PA7, antibiotic 4 hours (37° C.)",(R)
same,"susceptibility classification, HTFC","P. aeruginosa [3]; P. aeruginosa PA46, antibiotic 4 hours (37° C.)",(S)
same,"susceptibility classification, HTFC","P. aeruginosa [3]; P. aeruginosa PA49, antibiotic 4 hours (37° C.)",(S)
same,"susceptibility classification, HTFC","P. aeruginosa [3]; P. aeruginosa PA81, antibiotic 4 hours (37° C.)",(S)
same,"susceptibility classification, HTFC","P. aeruginosa [3]; P. aeruginosa PAO1, antibiotic 4 hours (37° C.)",(S)
same,MIC,"P. aeruginosa [3]; 4 h, P. aeruginosa Blood Culture B, antibiotic 4 hours (37° C.)",0.25 µg/mL
same,MIC,"P. aeruginosa [3]; 4 h, P. aeruginosa PA7, antibiotic 4 hours (37° C.)",> 16 µg/mL
same,MIC,"P. aeruginosa [3]; 4 h, P. aeruginosa PA46, antibiotic 4 hours (37° C.)",1 µg/mL
same,MIC,"P. aeruginosa [3]; 4 h, P. aeruginosa PA49, antibiotic 4 hours (37° C.)",1 µg/mL
same,MIC,"P. aeruginosa [3]; 4 h, P. aeruginosa PA81, antibiotic 4 hours (37° C.)",1 µg/mL
same,MIC,"P. aeruginosa [3]; PAO1, 4 h, P. aeruginosa PAO1, antibiotic 4 hours (37° C.)",2 µg/mL
same,"susceptibility classification, BMD",P. aeruginosa [4]; P. aeruginosa Blood Culture B,(S)
same,"susceptibility classification, BMD",P. aeruginosa [4]; P. aeruginosa Blood Culture C,(S)
same,"susceptibility classification, BMD",P. aeruginosa [4]; P. aeruginosa PA7,(R)
same,"susceptibility classification, BMD",P. aeruginosa [4]; P. aeruginosa PA46,(S)
same,"susceptibility classification, BMD",P. aeruginosa [4]; P. aeruginosa PA49,(S)
same,"susceptibility classification, BMD",P. aeruginosa [4]; P. aeruginosa PA81,(S)
same,"susceptibility classification, BMD",P. aeruginosa [4]; P. aeruginosa PAO1,(S)
same,MIC,P. aeruginosa [4]; P. aeruginosa Blood Culture B,2 µg/mL
same,MIC,P. aeruginosa [4]; P. aeruginosa Blood Culture C,≤ 0.125 µg/mL
same,MIC,P. aeruginosa [4]; P. aeruginosa PA7,> 64 µg/mL
same,MIC,P. aeruginosa [4]; P. aeruginosa PA46,0.5 µg/mL
same,MIC,P. aeruginosa [4]; P. aeruginosa PA49,0.5 µg/mL
same,MIC,P. aeruginosa [4]; P. aeruginosa PA81,0.5 µg/mL
same,MIC,"P. aeruginosa [4]; PAO1, P. aeruginosa PAO1",0.5 µg/mL
